From patent publication US12421243B2, “Pharmaceutically effective compounds inhibiting selectively the myosin 2 isoforms” (PRINTNET KERESKEDELMI ÉS SZOLGÁLTATÓ KFT., priority 2018, dated 2025)

Assays:
[1] = solubility in PBS in the presence of 1% DMSO; format: physicochemical; conditions: phosphate buffered saline with 1% DMSO, aqueous buffer, kinetic from dmso stock, PBS w/o Mg, Ca
[2] = test system: S. typhimurium TA98; assay: Ames Reverse Mutagenicity Assay (Ames MPF Test), TA98; format: cell-based
Experimental: Mutagenicity of the compounds was determined in the Ames Reverse Mutagenicity Assay (Ames MPF Test, Xenometrix Inc.) approved by the OECD, EMA and FDA on S. typhimurium TA98 and TA100 strains without or in the presence of S9 rat liver fraction. Relative mutagenicity values were prepared using a table provided by the manufacturer. Relative mutagenicity values according to OECD, EMA, and FDA standards may not exceed 2 at any concentration because in such a case they are potentially mutagenic.

O=C1c2ccsc2N=C2N(c3ccc(N4CCOCC4)cc3)CCC12O (stereo not shown) [Compound 188, 9-Hydroxy-12-[4-(morpholin-4-yl)phenyl]-4-thia-2,12-diazatricyclo[7.3.0.0^3,7]dodeca-1,3(7),5-trien-8-one]
solubility [1]: 1450 µM | Relative mutagenicity (as compared to the control value) ([2]; TA98, +S9, 31.25 μM): 0.2 | Relative mutagenicity (as compared to the control value) ([2]; TA98, +S9, 62.5 μM): 0.2 | Relative mutagenicity (as compared to the control value) ([2]; TA98, +S9, 125 μM): 0.4 | Relative mutagenicity (as compared to the control value) ([2]; TA98, +S9, 250 μM): 0.4 | Relative mutagenicity (as compared to the control value) ([2]; TA98, +S9, 500 μM): 0.4 | Relative mutagenicity (as compared to the control value) ([2]; TA98, +S9, 1000 μM): 0.2 | Relative mutagenicity (as compared to the control value) ([2]; TA98, −S9, 31.25 μM): 1.2 | Relative mutagenicity (as compared to the control value) ([2]; TA98, −S9, 62.5 μM): 0.3 | Relative mutagenicity (as compared to the control value) ([2]; TA98, −S9, 125 μM): 0.7 | Relative mutagenicity (as compared to the control value) ([2]; TA98, −S9, 250 μM): 0.3 | Relative mutagenicity (as compared to the control value) ([2]; TA98, −S9, 500 μM): 0.7 | Relative mutagenicity (as compared to the control value) ([2]; TA98, −S9, 1000 μM): 1.0
